Measured values published in patent publication US4525473A, “Cephalosporins” (Bristol-Myers Company, priority 1983, dated 1985).
≈ marks a conversion by molar mass, not a printed value. Read-outs that look alike come from different tables or passages of the source.

What was measured:
Format in all cases: cell-based
[1] = tested on: CETresistant E. coli (3) and K. pneumoniae (2); experiment: MIC by two-fold serial agar dilution in Mueller-Hinton agar, Gn-Ib; settings: for MIC: Escherichia coli, read-out: Geometric Mean of MIC
Method: (§1) In the primary evaluation of the compounds of this invention, the Minimum Inhibitory Concentrations (MIC's) of the compounds were determined by the two-fold serial agar dilution method in Mueller-Hinton agar against 32 strains of test organisms in six groups.
GnIb: CETresistant E. coli (3) and K. pneumoniae (2)

[2] = tested on: Cephalothin(CET)sensitive E. coli (2 strains), K. pneumoniae (1) and P. mirabilis (2); experiment: MIC by two-fold serial agar dilution in Mueller-Hinton agar, Gn-Ia; settings: for MIC: read-out: Geometric Mean of MIC
Method: as §1
GnIa: Cephalothin(CET)sensitive E. coli (2 strains), K. pneumoniae (1) an […]

P. aeruginosa = experiment: MIC by two-fold serial agar dilution in Mueller-Hinton agar, Gn-III; settings: for MIC: Pseudomonas aeruginosa, read-out: Geometric Mean of MIC
Method: as §1

[3] = tested on: Penicillin(PC)sensitive S. aureus; experiment: MIC by two-fold serial agar dilution in Mueller-Hinton agar, Gp-Ia; settings: for MIC: Staphylococcus aureus
Method: as §1
Gp-Ia: Penicillin(PC)sensitive S. aureus

PCresistant S. aureus = experiment: MIC by two-fold serial agar dilution in Mueller-Hinton agar, Gp-Ib; settings: for MIC: Staphylococcus aureus, read-out: Geometric Mean of MIC
Method: as §1
GpIb: PCresistant S. aureus

[4] = tested on: M. morganii (1), E. cloacae (2) and S. marcescens (2); experiment: MIC by two-fold serial agar dilution in Mueller-Hinton agar, Gn-II; settings: for MIC: read-out: Geometric Mean of MIC
Method: as §1
GnII: M. morganii (1), E. cloacae (2) and S. marcescens (2)

[5] = Gn-Ib, 5 strains, CET-resistant
[6] = Gn-Ia, 5 strains, CET-sensitive
[7] = Gn-III, 7 strains, P. aeruginosa
[8] = Gp-Ia, 5 strains, PC-sensitive S. aureus
[9] = Gp-Ib, 5 strains, PC-resistant S. aureus
[10] = Gp-Ia, 5 strains, PC-sensitive S. aureus, read-out: Geometric Mean of MIC
[11] = read-out: Geometric Mean of MIC, Gp-Ia, 5 strains, PC-sensitive S. aureus

Compound | MIC [1, 5] [µg/mL] | MIC [2, 6] [µg/mL] | MIC (P. aeruginosa; [7]) [µg/mL] | MIC [3, 10] [µg/mL] | MIC (PCresistant S. aureus; [9]) [µg/mL] | MIC ([4]; Gn-II, 5 strains) [µg/mL] | MIC [1] [µg/mL] | other results
7-[(Z)-2-(2-Aminothiazol-4-yl)-2-methoxyiminoacetamido]-3-[(6-methyl-5,6,7,8-tetrahydro-6-[1,6]naphthylidinio)methyl]-3-cephem-4-carboxylate [Example 23] | – | – | – | – | – | – | – | Geometric Mean of MIC [1, 5]: 0.28 µg/mL; Geometric Mean of MIC [2, 6]: 0.070 µg/mL; Geometric Mean of MIC (P. aeruginosa; [7]): 6.3 µg/mL; Geometric Mean of MIC [3, 8]: 1.4 µg/mL; Geometric Mean of MIC (PCresistant S. aureus; [9]): 2.9 µg/mL; Geometric Mean of MIC ([4]; Gn-II, 5 strains): 0.96 µg/mL
CO/N=C(\C(=O)NC1C(=O)N2C(C(=O)[O-])=C(C[N+]3(C)CCC[C@H]3C(N)=O)CSC12)c1csc(N)n1 (single isomer, unassigned) [8 Isomer A] | 0.39 (≈ 0.745 µM) | 0.098 (≈ 0.187 µM) | 11 (≈ 21 µM) | 2.1 (≈ 4.01 µM) | 4.7 (≈ 8.98 µM) | 0.35 (≈ 0.668 µM) | – | –
CO/N=C(\C(=O)NC1C(=O)N2C(C(=O)[O-])=C(C[N+]3(C)CCC[C@H]3C(N)=O)CSC12)c1csc(N)n1 (single isomer, unassigned) [8 Isomer B] | – | – | – | – | – | – | 0.2 (≈ 0.382 µM) | Geometric Mean of MIC [2, 6]: 0.057 µg/mL; Geometric Mean of MIC (P. aeruginosa; [7]): 7.2 µg/mL; Geometric Mean of MIC [3, 8]: 1.6 µg/mL; Geometric Mean of MIC (PCresistant S. aureus; [9]): 4.1 µg/mL; MIC [4]: 0.23 µg/mL (≈ 0.439 µM)
CO/N=C(\C(=O)NC1C(=O)N2C(C(=O)[O-])=C(C[N+]3(C)CCOC3)CSC12)c1csc(N)n1 (single isomer, unassigned) [12 Isomer A] | 0.25 (≈ 0.518 µM) | 0.046 (≈ 0.0953 µM) | 5.4 (≈ 11.2 µM) | – | 4.4 (≈ 9.12 µM) | 0.21 (≈ 0.435 µM) | – | MIC [3, 11]: 1.1 µg/mL (≈ 2.28 µM)
CO/N=C(\C(=O)NC1C(=O)N2C(C(=O)[O-])=C(C[N+]3(C)CCOC3)CSC12)c1csc(N)n1 (single isomer, unassigned) [12 Isomer B] | – | – | – | – | – | – | – | Geometric Mean of MIC [1, 5]: 0.21 µg/mL; MIC [2]: 0.04 µg/mL (≈ 0.0829 µM); Geometric Mean of MIC (P. aeruginosa; [7]): 4.0 µg/mL; Geometric Mean of MIC [3, 8]: 1.3 µg/mL; Geometric Mean of MIC (PCresistant S. aureus; [9]): 4.4 µg/mL; Geometric Mean of MIC ([4]; Gn-II, 5 strains): 0.18 µg/mL
CO/N=C(\C(=O)NC1C(=O)N2C(C(=O)[O-])=C(C[N+]3(C)CCSC3)CSC12)c1csc(N)n1 (single isomer, unassigned) [13 Isomer A] | – | 0.046 (≈ 0.0923 µM) | 5.9 (≈ 11.8 µM) | 0.84 (≈ 1.68 µM) | 3.1 (≈ 6.22 µM) | – | – | Geometric Mean of MIC [1, 5]: 0.28 µg/mL; Geometric Mean of MIC ([4]; Gn-II, 5 strains): 0.28 µg/mL
CO/N=C(\C(=O)NC1C(=O)N2C(C(=O)[O-])=C(C[N+]3(C)CCSC3)CSC12)c1csc(N)n1 (single isomer, unassigned) [13 Isomer B] | – | – | – | – | – | – | – | Geometric Mean of MIC [1, 5]: 0.13 µg/mL; MIC [2]: 0.029 µg/mL (≈ 0.0582 µM); MIC (P. aeruginosa): 2.5 µg/mL (≈ 5.01 µM); Geometric Mean of MIC [3, 8]: 0.72 µg/mL; Geometric Mean of MIC (PCresistant S. aureus; [9]): 1.6 µg/mL; Geometric Mean of MIC ([4]; Gn-II, 5 strains): 0.13 µg/mL
CO/N=C(\C(=O)NC1C(=O)N2C(C(=O)[O-])=C(C[N+]3(C)CCCCC3)CS[C@H]12)c1csc(N)n1 (stereo partly drawn) [Example 1, 7-[(Z)-2-(2-Aminothiazol-4-yl)-2-methoxyiminoacetamido]-3-(1-methyl-1-piperidinio)methyl-3-cephem-4-carboxylate] | – | 0.03 (≈ 0.0607 µM) | 3.2 (≈ 6.47 µM) | – | 2.9 (≈ 5.86 µM) | 0.55 (≈ 1.11 µM) | 0.14 (≈ 0.283 µM) | MIC [3, 11]: 1.3 µg/mL (≈ 2.63 µM)
CO/N=C(\C(=O)NC1C(=O)N2C(C(=O)[O-])=C(C[N+]3(C)CCOCC3)CS[C@H]12)c1csc(N)n1 (stereo partly drawn) [Example 2, 7-[(Z)-2-(2-Aminothiazol-4-yl)-2-methoxyiminoacetamido]-3-(4-methyl-4-morpholinio)methyl-3-cephem-4-carboxylate] | – | 0.061 (≈ 0.123 µM) | 4 (≈ 8.06 µM) | 1.7 (≈ 3.42 µM) | 5 (≈ 10.1 µM) | 0.96 (≈ 1.93 µM) | 0.22 (≈ 0.443 µM) | –
CO/N=C(\C(=O)NC1C(=O)N2C(C(=O)[O-])=C(C[N+]34CCC(CC3)CC4)CS[C@H]12)c1csc(N)n1 (stereo partly drawn) [Example 3, 7-[(Z)-2-(2-Aminothiazol-4-yl)-2-methoxyiminoacetamido]-3-(1-quinuclidinio)methyl-3-cephem-4-carboxylate] | 0.14 (≈ 0.276 µM) | – | 2.8 (≈ 5.53 µM) | 0.77 (≈ 1.52 µM) | – | 0.84 (≈ 1.66 µM) | – | MIC [2]: 0.04 µg/mL (≈ 0.079 µM); MIC (PCresistant S. aureus): 2.5 µg/mL (≈ 4.93 µM)
CO/N=C(\C(=O)NC1C(=O)N2C(C(=O)[O-])=C(C[N+]34CCN(CC3)CC4)CS[C@H]12)c1csc(N)n1 (stereo partly drawn) [Example 4, 7-[(Z)-2-(2-Aminothiazol-4-yl)-2-methoxyiminoacetamido]-3-(1,4-diazabicyclo[2,2,2]octan-1-io)methyl-3-cephem-4-carboxylate] | – | 0.07 (≈ 0.138 µM) | – | 2.9 (≈ 5.71 µM) | 5.8 (≈ 11.4 µM) | – | 0.16 (≈ 0.315 µM) | MIC (P. aeruginosa): 3.6 µg/mL (≈ 7.09 µM); MIC [4]: 0.8 µg/mL (≈ 1.58 µM)
CO/N=C(\C(=O)NC1C(=O)N2C(C(=O)[O-])=C(C[N+]3(C)CCN(C)CC3)CS[C@H]12)c1csc(N)n1 (stereo partly drawn) [Example 5, 7-[(Z)-2-(2-Aminothiazol-4-yl)-2-methoxyiminoacetamido]-3-(1,4-dimethyl-1-piperazinio)methyl-3-cephem-4-carboxylate] | 0.12 (≈ 0.235 µM) | 0.057 (≈ 0.112 µM) | – | 2.3 (≈ 4.51 µM) | 4.7 (≈ 9.22 µM) | 0.78 (≈ 1.53 µM) | – | MIC (P. aeruginosa): 3.6 µg/mL (≈ 7.06 µM)
CO/N=C(\C(=O)NC1C(=O)N2C(C(=O)[O-])=C(C[N+]3(C)CCc4scnc4C3)CS[C@H]12)c1csc(N)n1 (stereo partly drawn) [Example 6, 7-[(Z)-2-(2-Aminothiazol-4-yl)-2-methoxyiminoacetamido]-3-(5-methyl-4,5,6,7-tetrahydro-5-thiazolo[4,5-c]pyridinio)methyl-3-cephem-4-carboxylate] | – | – | 4.2 (≈ 7.64 µM) | 0.9 (≈ 1.64 µM) | 3.2 (≈ 5.82 µM) | – | 0.15 (≈ 0.273 µM) | MIC [2]: 0.025 µg/mL (≈ 0.0455 µM); MIC [4]: 0.4 µg/mL (≈ 0.728 µM)
CO/N=C(\C(=O)NC1C(=O)N2C(C(=O)[O-])=C(C[N+]3(C)CCCCCC3)CS[C@H]12)c1csc(N)n1 (stereo partly drawn) [Example 7, 7-[(Z)-2-(2-Aminothiazol-4-yl)-2-methoxyiminoacetamido]-3-(1-methylhexahydroazepinio)methyl-3-cephem-4-carboxylate] | 0.13 (≈ 0.256 µM) | 0.05 (≈ 0.0983 µM) | 4.2 (≈ 8.26 µM) | 0.9 (≈ 1.77 µM) | 3.2 (≈ 6.29 µM) | 0.15 (≈ 0.295 µM) | – | –
CO/N=C(\C(=O)NC1C(=O)N2C(C(=O)[O-])=C(C[N+]3(C)CCC(O)C3)CS[C@H]12)c1csc(N)n1 (stereo partly drawn) [Example 9, 7-[(Z)-2-(2-Aminothiazol-4-yl)-2-methoxyiminoacetamido]-3-(3-hydroxy-1-methylpyrrolidinio)methyl-3-cephem-4-carboxylate] | – | 0.27 (≈ 0.544 µM) | 2.9 (≈ 5.84 µM) | – | 3.3 (≈ 6.65 µM) | – | 0.14 (≈ 0.282 µM) | MIC [3, 11]: 1.3 µg/mL (≈ 2.62 µM); MIC [4]: 0.14 µg/mL (≈ 0.282 µM)
CC[N+]1(CC2=C(C(=O)[O-])N3C(=O)C(NC(=O)/C(=N\OC)c4csc(N)n4)[C@H]3SC2)CCCC1 (stereo partly drawn) [Example 10, 7-[(Z)-2-(2-Aminothiazol-4-yl)-2-methoxyiminoacetamido]-3-(1-ethylpyrrolidinio)methyl-3-cephem-4-carboxylate] | 0.13 (≈ 0.263 µM) | – | 3.1 (≈ 6.27 µM) | – | – | 0.13 (≈ 0.263 µM) | – | MIC [2]: 0.037 µg/mL (≈ 0.0748 µM); MIC [3, 11]: 1 µg/mL (≈ 2.02 µM); MIC (PCresistant S. aureus): 2 µg/mL (≈ 4.04 µM)
CO/N=C(\C(=O)NC1C(=O)N2C(C(=O)[O-])=C(C[N+]3(C)CC=CC3)CS[C@H]12)c1csc(N)n1 (stereo partly drawn) [Example 11, 7-[(Z)-2-(2-Aminothiazol-4-yl)-2-methoxyiminoacetamido]-3-(1-methyl-3-pyrrolinio)methyl-3-cephem-4-carboxylate] | – | 0.019 (≈ 0.0397 µM) | – | 0.78 (≈ 1.63 µM) | 2.1 (≈ 4.39 µM) | 0.15 (≈ 0.313 µM) | 0.17 (≈ 0.355 µM) | MIC (P. aeruginosa): 2.5 µg/mL (≈ 5.22 µM)
